Test: ABTS degradation, comparison with tocopherol after dark or UV exposure
Conditions: colloids 0.5 g/L, tocopherol 1.5 g/L
Method: The protocol for preparing the solutions as in point 4.1/ was repeated with a concentration of ZnO/3-hydroxybenzaldehyde colloids of 0.5 g/L and a concentration of tocopherol of 1.5 g/L.
The solutions obtained were separated: a fraction of the solution being placed in the dark, and the remaining fraction being placed under UV irradiation. After 30 minutes of exposure (to the dark or to UV), 30 μL of a concentrated solution of ABTS (7 mM) was added, and the absorption was then measured.

In the case of tocopherol, the ABTS degradation capacity (after 30 minutes of exposure to UV) was 22% and the ABTS degradation capacity (after 30 minutes of exposure to the dark) was 22%.

Source: patent publication US11904037B2, “Enzymatic molecule mimicking anti-oxidant activity” (BIONUCLEI, priority 2018, dated 2024)
